Biological target: SRC (Homo sapiens, UniProt P12931)
Assay: SRC Biochemical Assay Protocol (microfluidic mobility shift assay, FLPeptide4 substrate)
Method: SRC Biochemical Assay Protocol
Src biochemical kinase activity was measured using a surrogate fluorescent peptide substrate [FLPeptide4; 5-FAM-EGIYGVLFKKK-CONH2 (PerkinElmer Cat. No. 760348)] with a microfluidic mobility shift assay. Reactions were performed in 384-well flat bottom polystyrene microplates (Corning Cat. No. 3570) at a final volume of 20 μL in 50 mM HEPES pH 7.4, 1 mM EGTA, 10 mM MgCl2, 0.01% Brij-35, 2 mM DTT, 0.05% BSA, 1% DMSO. Inhibition experiments were performed with compounds of the invention varying from 0.0017-100 μM with 0.26 nM SRC, 1.5 μM FLPeptide4, and 50 μM ATP. Specifically, 15 μl 1.3× mixtures of SRC+FLPeptide4+compounds were preincubated for 30 minutes at room temperature followed by addition of 5 μL 4×ATP. Reactions were carried out for 90 minutes then quenched with 40 μl 500 mM EDTA. Phosphorylated peptide product was measured with a mobility shift assay using a LabChip® EZ Reader system (PerkinElmer Cat. No. 122919). Inhibition ratios were calculated relative to neutral controls and IC50 values were obtained from dose response data fitted to a 4-parameter logistic model.

Chain of SRC (P12931 whole entry, species assumed): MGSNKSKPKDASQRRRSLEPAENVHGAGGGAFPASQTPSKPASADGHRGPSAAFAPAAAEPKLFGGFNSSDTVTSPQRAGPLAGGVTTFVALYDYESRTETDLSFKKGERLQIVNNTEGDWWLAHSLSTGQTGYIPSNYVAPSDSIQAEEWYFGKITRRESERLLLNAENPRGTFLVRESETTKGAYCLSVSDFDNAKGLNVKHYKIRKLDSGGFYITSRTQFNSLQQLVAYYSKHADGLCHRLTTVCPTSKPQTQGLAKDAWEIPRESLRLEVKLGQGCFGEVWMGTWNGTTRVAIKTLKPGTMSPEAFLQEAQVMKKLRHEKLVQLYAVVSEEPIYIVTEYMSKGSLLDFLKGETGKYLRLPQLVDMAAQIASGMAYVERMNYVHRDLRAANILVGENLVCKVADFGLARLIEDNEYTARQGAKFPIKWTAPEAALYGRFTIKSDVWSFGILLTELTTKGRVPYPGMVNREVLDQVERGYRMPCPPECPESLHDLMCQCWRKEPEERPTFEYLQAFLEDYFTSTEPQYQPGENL

An IC50 of 10 to 1000 nM was found for `Cn1c(C#CC2CN(C(=O)/C=C/CN3CCOCC3)C2)c(-c2ccc(Oc3ccccc3)cc2)c2c(N)ncnc21` [III-61] in this work.
An IC50 of no more than 10 nM was found for `C=CC(=O)N1CCC(N2CC(C#Cc3c(-c4ccc(Oc5ccccc5)c5c4OCO5)c4c(N)ncnc4n3C)C2)CC1` [III-85] in this work.
An IC50 of 10 to 1000 nM was found for `C=CC(=O)N1CCC(N2CC(O)(C#Cc3c(-c4ccc(Oc5ccccc5)cc4)c4c(N)ncnc4n3C)C2)CC1` [III-23] in this work.
An IC50 of 10 to 1000 nM was found for `C=CC(=O)N1CCC(N2CC(C#Cc3c(-c4ccc(Oc5ccccc5)cc4OC)c4c(N)ncnc4n3C)C2)CC1` [III-80] in this work.
An IC50 of 10 to 1000 nM was found for `C=CC(=O)N1CCC(N2CC(C#Cc3c(-c4ccc(Oc5cccc(C)n5)c5c4OCO5)c4c(N)ncnc4n3C)C2)CC1` [III-90] in this work.
An IC50 of no more than 10 nM was found for `C=CC(=O)N1CCC(N2CC(C#Cc3c(-c4ccc(Oc5ccccc5)cc4)c4c(N)ncnc4n3[C@@H]3CCOC3)C2)CC1` [III-55] in this work.
An IC50 of 10 to 1000 nM was found for `C=CC(=O)N1CCC(N2CC(C#Cc3c(-c4ccc(Oc5cccc(C)n5)cc4)c4c(N)ncnc4n3C)C2)CC1` [III-75] in this work.
An IC50 of no more than 10 nM was found for `C=CS(=O)(=O)N1CC(N2CCC(C#Cc3c(-c4ccc(Oc5ccccc5)cc4)c4c(N)ncnc4n3C(C)C)CC2)C1` [Example I-53] in this work.
An IC50 of 10 to 1000 nM was found for `C=CC(=O)N1CCC(C#Cc2c(-c3ccc(Nc4ccccn4)cc3)c3c(N)ncnc3n2C(C)C)CC1` [Example I-9] in this work.
An IC50 of 10 to 1000 nM was found for `CC(CO)n1c(C#CC2CCN(C(=O)/C=C/CN(C)C)C2)c(-c2ccc(Oc3ccccc3)cc2)c2c(N)ncnc21` (stereo not shown) [III-32] in this work.
An IC50 of 10 to 1000 nM was found for `C=CC(=O)N1CC(N2CCC(C#Cc3c(-c4ccc(Oc5ccccn5)cc4)c4c(N)ncnc4n3C(C)C)CC2)C1` [Example I-47] in this work.
An IC50 of 10 to 1000 nM was found for `Cn1c(C#CC2CCN(C(=O)/C=C/CN3CCOCC3)CC2)c(-c2ccc(Oc3ccccc3)cc2)c2c(N)ncnc21` [III-41] in this work.
An IC50 of 10 to 1000 nM was found for `C=CC(=O)N1CCC(N2CC(C#Cc3c(-c4ccc(Oc5cccc(C)n5)c(OC)c4)c4c(N)ncnc4n3CC)C2)CC1` [II-121] in this work.
An IC50 of 10 to 1000 nM was found for `C=CC(=O)N[C@H]1CC[C@H](C#Cc2c(-c3ccc(Oc4cccc(C)n4)c(OC)c3)c3c(N)ncnc3n2C)CC1` [III-4] in this work.
An IC50 of 10 to 1000 nM was found for `Cn1c(C#CC2CN(C(=O)/C=C/CN3CCC3)C2)c(-c2ccc(Oc3ccccc3)cc2)c2c(N)ncnc21` [III-81] in this work.
An IC50 of 10 to 1000 nM was found for `C=CC(=O)N1CCC(N2CC(C#Cc3c(-c4ccc(Oc5cccc(C)n5)c(OC)c4)c4c(N)ncnc4n3C3CCOC3)C2)CC1` (stereo not shown) [II-125] in this work.
An IC50 of no more than 10 nM was found for `C=CC(=O)N1CC(C#Cc2c(-c3ccc(Oc4ccccc4)cc3)c3c(N)ncnc3n2C(C)C)C1` [Example I-3] in this work.
An IC50 of 10 to 1000 nM was found for `Cn1c(C#CC2(O)CCN(C(=O)/C=C/CN3CCC3)CC2)c(-c2ccc(Oc3ccccc3)cc2)c2c(N)ncnc21` [III-50] in this work.
An IC50 of 10 to 1000 nM was found for `C=C(C)C(=O)N1CCC(C#Cc2c(-c3ccc(Oc4ccccc4)cc3)c3c(N)ncnc3n2[C@H]2CCOC2)CC1` [III-37] in this work.
An IC50 of 10 to 1000 nM was found for `C=CC(=O)N1CC2C(C#Cc3c(-c4ccc(Oc5ccccc5)cc4)c4c(N)ncnc4n3C)C2C1` (stereo not shown) [III-52] in this work.
An IC50 of 10 to 1000 nM was found for `C=CC(=O)N[C@H]1CC[C@@H](C#Cc2c(-c3ccc(Oc4ccccc4)cc3)c3c(N)ncnc3n2C)CC1` [III-57] in this work.
An IC50 of no more than 10 nM was found for `C=CC(=O)N[C@H](C)C(=O)N1CCC(C#Cc2c(-c3ccc(Oc4ccccc4)cc3)c3c(N)ncnc3n2C2CCOC2)CC1` (stereo partly shown) [III-76] in this work.
An IC50 of no more than 10 nM was found for `CC(C)n1c(C#CC2CCC(N)CC2)c(-c2ccc(Oc3ccccc3)cc2)c2c(N)ncnc21` (stereo not shown) [II-151, 6-((4-aminocyclohexyl)ethynyl)-7-isopropyl-5-(4-phenoxyphenyl)-7H-pyrrolo[2,3-d]pyrimidin-4-amine] in this work.
An IC50 of 10 to 1000 nM was found for `C=C(C)C(=O)N1CCC(O)(C#Cc2c(-c3ccc(Oc4ccccc4)cc3)c3c(N)ncnc3n2C)CC1` [III-35] in this work.
An IC50 of 10 to 1000 nM was found for `C=CC(=O)NC1CCN(C2CC(C#Cc3c(-c4ccc(Oc5ccccc5)cc4)c4c(N)ncnc4n3C)C2)CC1` (stereo not shown) [III-51] in this work.
An IC50 of 10 to 1000 nM was found for `C=CC(=O)N1CCC(N2CCC(C#Cc3c(-c4ccc(Oc5ccccc5)cc4)c4c(N)ncnc4n3C)C2)CC1` (stereo not shown) [III-73] in this work.
An IC50 of 10 to 1000 nM was found for `C=CC(=O)N1CCC(C#Cc2c(-c3ccc(Oc4cccc(C)c4)cc3)c3c(N)ncnc3n2C(C)C)CC1` [Example I-21] in this work.
An IC50 of 10 to 1000 nM was found for `COC(=O)C(C)n1c(C#CC2CCNCC2)c(-c2ccc(Oc3ccccc3)cc2)c2c(N)ncnc21` (stereo not shown) [II-154, methyl 2-(4-amino-5-(4-phenoxyphenyl)-6-(piperidin-4-ylethynyl)-7H-pyrrolo[2,3-d]pyrimidin-7-yl)propanoate] in this work.
An IC50 of 10 to 1000 nM was found for `C=CC(=O)N1CCC(N2CC(C#Cc3c(-c4ccc(Oc5ccccn5)c(OC)c4)c4c(N)ncnc4n3C)C2)C(S(C)(=O)=O)C1` (stereo not shown) [III-87] in this work.
An IC50 of 10 to 1000 nM was found for `CC(C)n1c(C#CC2CCN(C#N)CC2)c(-c2ccc(Oc3ccccc3)cc2)c2c(N)ncnc21` [Example I-2] in this work.
An IC50 of 10 to 1000 nM was found for `C=CC(=O)N1CCC(N2CC(C#Cc3c(-c4ccc(Oc5ccccc5)cc4)c4c(N)ncnc4n3C(C)CO)C2)CC1` (stereo not shown) [III-60] in this work.
An IC50 of 10 to 1000 nM was found for `CC#CC(=O)N1CCC(C#Cc2c(-c3ccc(Oc4ccccc4)cc3)c3c(N)ncnc3n2C(C)C)CC1` [Example I-18] in this work.
An IC50 of 10 to 1000 nM was found for `C=CC(=O)N1CCC(C#Cc2c(-c3ccc(Oc4cnccn4)cc3)c3c(N)ncnc3n2C(C)C)CC1` [Example I-14] in this work.
An IC50 of 10 to 1000 nM was found for `C=CC(=O)N1CCC(N2CC(C#Cc3c(-c4ccc(Oc5ccccc5)cc4)c4c(N)ncnc4n3C)C2)CC1` [III-25] in this work.
An IC50 of 10 to 1000 nM was found for `C=CC(=O)N1CCC(C#Cc2c(-c3ccc(Oc4ccccc4)nc3)c3c(N)ncnc3n2C(C)C)CC1` [Example I-10] in this work.
An IC50 of 10 to 1000 nM was found for `C=C(C)C(=O)N1CCC(C#Cc2c(-c3ccc(Oc4ccccc4)cc3)c3c(N)ncnc3n2C)CC1` [III-40] in this work.
An IC50 of no more than 10 nM was found for `C=CC(=O)N1CCC(N2CC(C#Cc3c(-c4ccc(Oc5ccccc5)cc4)c4c(N)ncnc4n3[C@H]3C[C@@H](O)C3)C2)CC1` [III-70] in this work.
An IC50 of 10 to 1000 nM was found for `Cn1c(C#CC2CCNCC2)c(-c2ccc(Oc3ccccc3)cc2)c2c(N)ncnc21` [II-159, 7-methyl-5-(4-phenoxyphenyl)-6-(piperidin-4-ylethynyl)-7H-pyrrolo[2,3-d]pyrimidin-4-amine] in this work.
An IC50 of 10 to 1000 nM was found for `COc1cc(-c2c(C#CC3CN(C)C3)n(C)c3ncnc(N)c23)ccc1Oc1cccc(C)n1` [III-86] in this work.
An IC50 of 10 to 1000 nM was found for `CN(C)C/C=C/C(=O)N1CCC(C#Cc2c(-c3ccc(Oc4ccccc4)cc3)c3c(N)ncnc3n2C)C1` (stereo not shown) [III-22] in this work.
An IC50 of 10 to 1000 nM was found for `Nc1ncnc2c1c(-c1ccc(Oc3ccccc3)cc1)c(C#CC1CCN(C(=O)/C=C/CN3CCOCC3)CC1)n2[C@H]1CCOC1` [III-36] in this work.
An IC50 of 10 to 1000 nM was found for `Cn1c(C#CC2(O)CCN(C(=O)/C=C/CN3CCOCC3)CC2)c(-c2ccc(Oc3ccccc3)cc2)c2c(N)ncnc21` [III-39] in this work.
An IC50 of 10 to 1000 nM was found for `C=CC(=O)N1CCC(C#Cc2c(-c3ccc(Oc4ncccn4)cc3)c3c(N)ncnc3n2C(C)C)CC1` [Example I-15] in this work.
An IC50 of 10 to 1000 nM was found for `C=CC(=O)N1CCCC(N2CC(C#Cc3c(-c4ccc(Oc5ccccc5)cc4)c4c(N)ncnc4n3C)C2)CC1` (stereo not shown) [III-56] in this work.
An IC50 of 10 to 1000 nM was found for `CN(C)C/C=C/C(=O)N1CCC(O)(C#Cc2c(-c3ccc(Oc4ccccc4)cc3)c3c(N)ncnc3n2C)CC1` [III-16] in this work.
An IC50 of 10 to 1000 nM was found for `C=CC(=O)N1CC[C@@H](C#Cc2c(-c3ccc(Oc4ccccc4)cc3)c3c(N)ncnc3n2C)C[C@@H]1C` [III-79] in this work.
An IC50 of 10 to 1000 nM was found for `CCC(=O)N1CC(N2CCC(C#Cc3c(-c4ccc(Oc5ccccc5)cc4)c4c(N)ncnc4n3C(C)C)CC2)C1` [II-158, 1-(3-(4-((4-amino-7-isopropyl-5-(4-phenoxyphenyl)-7H-pyrrolo[2,3-d]pyrimidin-6-yl)ethynyl)piperidin-1-yl)azetidin-1-yl)propan-1-one] in this work.
An IC50 of no more than 10 nM was found for `C=CC(=O)N1CCC(N2CC(C#Cc3c(-c4ccc(Oc5ccccc5)cc4)c4c(N)ncnc4n3C3CCOC3)C2)CC1` (stereo not shown) [III-53] in this work.
An IC50 of no more than 10 nM was found for `C=CS(=O)(=O)NC1CCC(C#Cc2c(-c3ccc(Oc4ccccc4)cc3)c3c(N)ncnc3n2C(C)C)CC1` (stereo not shown) [Example I-43] in this work.
An IC50 of 10 to 1000 nM was found for `CC(CO)n1c(C#CC2CCN(C(=O)/C=C/CN(C)C)CC2)c(-c2ccc(Oc3ccccc3)cc2)c2c(N)ncnc21` (stereo not shown) [III-31] in this work.
An IC50 of 10 to 1000 nM was found for `COC(=O)C(C)N1CCC(C#Cc2c(-c3ccc(Oc4ccccc4)cc3)c3c(N)ncnc3n2C(C)C)CC1` (stereo not shown) [II-148, methyl 2-(4-((4-amino-7-isopropyl-5-(4-phenoxyphenyl)-7H-pyrrolo[2,3-d]pyrimidin-6-yl)ethynyl)piperidin-1-yl)propanoate] in this work.
An IC50 of 10 to 1000 nM was found for `C=CC(=O)N1CCC(O)(C#Cc2c(-c3ccc(Oc4ccccc4)cc3)c3c(N)ncnc3n2C)C[C@H]1C` (stereo partly shown) [III-48] in this work.
An IC50 of 10 to 1000 nM was found for `C=CC(=O)N1CCC(C#Cc2c(-c3ccc(Oc4ccccc4)cc3)c3c(N)ncnc3n2C(C)CO)C1` (stereo not shown) [III-33] in this work.
An IC50 of 10 to 1000 nM was found for `C=CC(=O)N1CCC(C#Cc2c(-c3ccc(Oc4ccccn4)cc3)c3c(N)ncnc3n2C(C)C)CC1` [Example I-12] in this work.
An IC50 of 1000 to 10000 nM was found for `C=CC(=O)N1C[C@@H]2[C@@H](C#Cc3c(-c4ccc(Oc5cccc(C)n5)c(OC)c4)c4c(N)nccc4n3CCOC)[C@@H]2C1` [II-78] in this work.
An IC50 of 10 to 1000 nM was found for `C=CC(=O)N1CCC(C#Cc2c(-c3ccc(Oc4cccc(F)c4)cc3)c3c(N)ncnc3n2C(C)C)CC1` [Example I-28] in this work.
An IC50 of 10 to 1000 nM was found for `C=CC(=O)N1CCC(N2CC(C#Cc3c(-c4ccc(Oc5ccccc5)cc4)c4c(N)ncnc4n3C)C2)C[C@@H]1C` (stereo partly shown) [III-47] in this work.
An IC50 of no more than 10 nM was found for `CC(C(=O)O)N1CCC(C#Cc2c(-c3ccc(Oc4ccccc4)cc3)c3c(N)ncnc3n2C(C)C)CC1` (stereo not shown) [II-149, 2-(4-((4-amino-7-isopropyl-5-(4-phenoxyphenyl)-7H-pyrrolo[2,3-d]pyrimidin-6-yl)ethynyl)piperidin-1-yl)propanoic acid] in this work.

Reference: US20250154154A1 (Relay Binney Street, 2nd Floor, priority 2020, published 2025)
